Results reported in ChEMBL document CHEMBL1139685, “Antimalarial activity of N-alkyl amine, carboxamide, sulfonamide, and urea derivatives of a dispiro-1,2,4-trioxolane piperidine” (Bioorg Med Chem Lett, 2006).
Values after ≈ are worked out from the molar mass of the structure shown.

Assays:
Plasmodium falciparum [1] = test: Antimalarial activity against Plasmodium falciparum K1; assay type: functional, organism-based
Plasmodium falciparum [2] = test: Antimalarial activity against Plasmodium falciparum NF54; assay type: functional, organism-based
Mus musculus [3] = test: Survival of MORO mice (Mus musculus) infected with Plasmodium berghei at 10 mg/kg, perorally after 30 day post-infection; assay type: functional; conditions: route oral
Mus musculus [4] = test: Survival of MORO mice (Mus musculus) infected with Plasmodium berghei at 10 mg/kg, subcutaneously after 30 day post-infection; assay type: functional; conditions: route subcutaneous
Plasmodium berghei [5] = test: Antimalarial activity in Plasmodium berghei infected MORO mice (Mus musculus) at 10 mg/kg peroral dose; assay type: functional; conditions: route oral
Plasmodium berghei [6] = test: Antimalarial activity in Plasmodium berghei infected MORO mice (Mus musculus) at 10 mg/kg subcutaneous dose; assay type: functional
[7] = Lipophilicity, LogD at pH 7.4; assay type: physicochemical; conditions: buffer
[8] = Partition coefficient, logP of the compound; assay type: physicochemical; conditions: octanol/water

Row | Compound | IC50 (Plasmodium falciparum [1]) [ng/mL] | IC50 (Plasmodium falciparum [2]) [ng/mL] | Activity (Mus musculus [3]) [days] | Activity (Mus musculus [4]) [days] | Activity (Plasmodium berghei [5]) [%] | Activity (Plasmodium berghei [6]) [%] | logD [7] | logP [8]
1 | COCC(=O)N1CC[C@]2(CC1)OO[C@]1(O2)C2CC3CC(C2)CC1C3 | 0.95 (≈ 2.82 nM) | 0.2 (≈ 0.593 nM) | 7.3 | 7.3 |  |  |  | 
2 | C1CC2(CCN1)OOC1(O2)C2CC3CC(C2)CC1C3.Cl (centres undefined) | 0.15 | 0.34 | 6.3 | 7.7 | 59 | 84 | 0.25 | 
3 | O=S(=O)(c1ccccc1)N1CCC2(CC1)OOC1(O2)C2CC3CC(C2)CC1C3 (centres undefined) | 1.1 (≈ 2.71 nM) | 1.2 (≈ 2.96 nM) | 6 | 10.3 | 71 | >99.99 |  | 5.5
4 | C1CCC2(CC1)OOC1(O2)C2CC3CC(C2)CC1C3 (centres undefined) | 0.97 (≈ 3.67 nM) | 1.4 (≈ 5.3 nM) | 7.2 | 11.9 | 94 | >99.99 |  | 6.1
5 | O=C(CO)N1CCC2(CC1)OOC1(O2)C2CC3CC(C2)CC1C3 (centres undefined) | 0.3 (≈ 0.928 nM) | 0.6 (≈ 1.86 nM) | 7 | 8 | 92 | 99.8 |  | 2.4
6 | O=C(N1CCOCC1)N1CCC2(CC1)OOC1(O2)C2CC3CC(C2)CC1C3 (centres undefined) |  |  | 8.7 | 9 |  |  |  | 
7 | O=C(O)CCC(=O)N1CCC2(CC1)OOC1(O2)C2CC3CC(C2)CC1C3 (centres undefined) | 7.1 (≈ 19.4 nM) | 7.2 (≈ 19.7 nM) | 6 | 6.3 | 39 | 52 |  | 2.3
8 | O=C(O)c1ccccc1C(=O)N1CCC2(CC1)OOC1(O2)C2CC3CC(C2)CC1C3 (centres undefined) | 22 (≈ 53.2 nM) | 13 (≈ 31.4 nM) | 6.3 | 6.3 |  |  | 1.2 | 
9 | NC(=O)N1CCC2(CC1)OOC1(O2)C2CC3CC(C2)CC1C3 (centres undefined) |  |  | 8.3 | 8.7 |  |  |  | 
10 | CC(C)(C)NC(=O)N1CCC2(CC1)OOC1(O2)C2CC3CC(C2)CC1C3 (centres undefined) | 0.98 (≈ 2.69 nM) | 1.8 (≈ 4.94 nM) | 6.7 | 9.7 |  |  |  | 
11 | CCS(=O)(=O)CCN1CCC2(CC1)OOC1(O2)C2CC3CC(C2)CC1C3 (centres undefined) | 1 (≈ 2.59 nM) | 2.9 (≈ 7.52 nM) | 7 | 8 |  |  | 2.3 | 
12 | Cc1ccc(NC(=O)N2CCC3(CC2)OOC2(O3)C3CC4CC(C3)CC2C4)cc1 (centres undefined) | 2.3 (≈ 5.77 nM) | 2.3 (≈ 5.77 nM) | 6 | 14.3 |  |  |  | 
13 | CN1CCN(C(=O)N2CCC3(CC2)OOC2(O3)C3CC4CC(C3)CC2C4)CC1 (centres undefined) | 0.2 (≈ 0.511 nM) | 0.22 (≈ 0.562 nM) | 7.3 | 8.3 |  |  | 2.6 | 
14 | CCS(=O)(=O)N1CCC2(CC1)OOC1(O2)C2CC3CC(C2)CC1C3 (centres undefined) | 0.38 (≈ 1.06 nM) | 0.81 (≈ 2.27 nM) | 7 | 9.3 | 85 | 99.94 |  | 
15 | O=S(=O)(Cc1ccccc1)N1CCC2(CC1)OOC1(O2)C2CC3CC(C2)CC1C3 (centres undefined) | 1.7 (≈ 4.05 nM) | 4.1 (≈ 9.77 nM) | 5.7 | 8 |  |  |  | 
16 | c1ccc(CN2CCC3(CC2)OOC2(O3)C3CC4CC(C3)CC2C4)cc1 (centres undefined) | 2.5 (≈ 7.03 nM) | 2.6 (≈ 7.31 nM) | 6 | 10 |  |  | 3.5 | 
17 | CN(C)C(=O)N1CCC2(CC1)OOC1(O2)C2CC3CC(C2)CC1C3 (centres undefined) | 0.7 (≈ 2.08 nM) |  | 7 | 7 |  |  |  | 
18 | O=C(Nc1ccc(Cl)cc1)N1CCC2(CC1)OOC1(O2)C2CC3CC(C2)CC1C3 (centres undefined) |  |  | 6 | 13.7 |  |  |  | 
19 | CO[C@H]1O[C@@H]2O[C@@]3(C)CC[C@H]4[C@H](C)CC[C@@H]([C@H]1C)[C@@]24OO3 | 0.74 (≈ 2.48 nM) | 1.2 (≈ 4.02 nM) | 7.9 | 9.1 | 98 | 99.78 |  | 3.3
20 | CC(=O)Nc1ccc(S(=O)(=O)N2CCC3(CC2)OOC2(O3)C3CC4CC(C3)CC2C4)cc1 (centres undefined) | 1.4 (≈ 3.03 nM) | 0.5 (≈ 1.08 nM) | 6.3 | 12 |  |  |  | 
21 | CC(=O)N1CCC2(CC1)OOC1(O2)C2CC3CC(C2)CC1C3 (centres undefined) | 0.82 (≈ 2.67 nM) | 0.93 (≈ 3.03 nM) | 6.7 | 7.3 | 81 | 85 |  | 3.8
22 | CC(C)(C)CC(=O)N1CCC2(CC1)OOC1(O2)C2CC3CC(C2)CC1C3 (centres undefined) |  |  | 7.7 | 8.3 |  |  |  | 
23 | c1cc(CN2CCC3(CC2)OOC2(O3)C3CC4CC(C3)CC2C4)ccn1 (centres undefined) | 0.4 (≈ 1.12 nM) | 0.67 (≈ 1.88 nM) | 6.3 | 11 |  |  | 2.7 | 
24 | O=C(Nc1ccccc1)N1CCC2(CC1)OOC1(O2)C2CC3CC(C2)CC1C3 (centres undefined) |  |  | 7 | 19.7 |  |  |  | 
25 | O=C(c1ccncc1)N1CCC2(CC1)OOC1(O2)C2CC3CC(C2)CC1C3 (centres undefined) |  |  | 6.7 | 7 |  |  |  | 
26 | CC(C)N(C(=O)N1CCC2(CC1)OOC1(O2)C2CC3CC(C2)CC1C3)C(C)C (centres undefined) |  | 6.6 (≈ 16.8 nM) | 8.3 | 20.3 |  |  |  | 
27 | CS(=O)(=O)N1CCC2(CC1)OOC1(O2)C2CC3CC(C2)CC1C3 (centres undefined) | 0.59 (≈ 1.72 nM) | 0.64 (≈ 1.86 nM) | 6.7 | 10.3 | 93 | 99.97 |  | 
28 | O=C(c1ccccc1)N1CCC2(CC1)OOC1(O2)C2CC3CC(C2)CC1C3 (centres undefined) | 0.35 (≈ 0.947 nM) | 0.58 (≈ 1.57 nM) | 7 | 8.7 | 93 | 99.9 |  | 5.6
29 | O=C(N1CCCC1)N1CCC2(CC1)OOC1(O2)C2CC3CC(C2)CC1C3 (centres undefined) | 3.9 (≈ 10.8 nM) | 6.7 (≈ 18.5 nM) | 7.3 | 9.7 |  |  |  | 
30 | C[C@H]1[C@H](OC(=O)CCC(=O)O)O[C@@H]2O[C@@]3(C)CC[C@H]4[C@H](C)CC[C@@H]1[C@@]24OO3 [ARTESUNATE] |  |  | 6.8 | 6.8 | 65 | 65 |  | 
